In US10286038B2, “Lysosome membrane protein 2 (LIMP-2) based peptides and related uses” (Northwestern University, priority 2016, dated 2019):

Columns and labels:
[1] = biological target: T1, lysosomal GC of living H4 cells (Homo sapiens, UniProt P04062); test: live-cell lysosomal GC activity assay in H4 cells; format: cell-based; details: 10 μM TAT peptide, relative to buffer control
T1 construct: Lysosomal GC activity of living H4 cells measured in vivo after incubation with uptake-optimized TAT-peptides; endogenous in cells; host or cells: H4 human neuroglioma cells (for the 74 h course: stably overexpressing α-synuclein)
T1 sequence (P04062 40-536): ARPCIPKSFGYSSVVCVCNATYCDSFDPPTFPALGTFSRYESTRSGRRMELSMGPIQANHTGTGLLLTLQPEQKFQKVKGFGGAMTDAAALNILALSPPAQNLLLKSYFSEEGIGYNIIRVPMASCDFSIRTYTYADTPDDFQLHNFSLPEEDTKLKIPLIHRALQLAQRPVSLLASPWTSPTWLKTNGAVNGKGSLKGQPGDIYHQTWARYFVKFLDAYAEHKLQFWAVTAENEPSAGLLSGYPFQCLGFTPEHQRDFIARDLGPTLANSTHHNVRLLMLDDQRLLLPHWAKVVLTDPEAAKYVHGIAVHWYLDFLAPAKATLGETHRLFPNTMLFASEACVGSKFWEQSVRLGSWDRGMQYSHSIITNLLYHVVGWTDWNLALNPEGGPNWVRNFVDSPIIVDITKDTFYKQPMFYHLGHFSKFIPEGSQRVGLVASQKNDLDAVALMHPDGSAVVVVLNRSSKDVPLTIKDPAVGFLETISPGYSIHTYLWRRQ
Description: Lysosomal GC activity in living cells was assessed by applying a drug-response assay in the presence and absence of a lysosomal inhibitor (bafilomycin A1; Invivogen) dissolved in DMSO (24). TAT peptides (10 μM) were added to the cell medium for 1 h; then H4 cells (see Table 5) were incubated with 100 μg/mL cell-permeable artificial substrate 5-(pentafluorobenzoylamino) fluorescein di-β-D-glucopyranoside (PFB-FDGlu) (Life Technologies, Thermo Fisher Scientific) for another hour. Cells were washed with warm medium; then the medium was replaced with phenol red-free neurobasal medium (Life Technologies, Thermo Fisher Scientific). The fluorescence intensity was recorded every 30 min for β-4 h in a SpectraMax i3 plate reader (Molecular Devices) (PFB-FDGlu: excitation=485 nm, emission=530 nm). After the final reading, cells were fixed in 4% formaldehyde/PBS and were stained with CellTag 700 (LICOR Biosciences) according to the manufacturer's instructions to measure cell volume. The plate was scanned on an Odyssey infrared imager (LI-COR Biosciences). Fluorescence intensities were normalized to cell volume and graphed versus time. Whole-cell activity was obtained by calculating the area below the DMSO curve. Nonlysosomal activity corresponds to the area under the bafilomycin A1 curve. Lysosomal activity was obtained by subtracting both areas (FIG. 6H).

[2] = biological target: T2, recombinant α-mannosidase (LAMAN) (Homo sapiens, UniProt O00754); test: recombinant LAMAN activity assay; format: biochemical; details: 1×-10× molar excess, acid pH
T2 construct: purchased Zymenex, Hillerod, DK
T2 sequence (O00754 50-1011): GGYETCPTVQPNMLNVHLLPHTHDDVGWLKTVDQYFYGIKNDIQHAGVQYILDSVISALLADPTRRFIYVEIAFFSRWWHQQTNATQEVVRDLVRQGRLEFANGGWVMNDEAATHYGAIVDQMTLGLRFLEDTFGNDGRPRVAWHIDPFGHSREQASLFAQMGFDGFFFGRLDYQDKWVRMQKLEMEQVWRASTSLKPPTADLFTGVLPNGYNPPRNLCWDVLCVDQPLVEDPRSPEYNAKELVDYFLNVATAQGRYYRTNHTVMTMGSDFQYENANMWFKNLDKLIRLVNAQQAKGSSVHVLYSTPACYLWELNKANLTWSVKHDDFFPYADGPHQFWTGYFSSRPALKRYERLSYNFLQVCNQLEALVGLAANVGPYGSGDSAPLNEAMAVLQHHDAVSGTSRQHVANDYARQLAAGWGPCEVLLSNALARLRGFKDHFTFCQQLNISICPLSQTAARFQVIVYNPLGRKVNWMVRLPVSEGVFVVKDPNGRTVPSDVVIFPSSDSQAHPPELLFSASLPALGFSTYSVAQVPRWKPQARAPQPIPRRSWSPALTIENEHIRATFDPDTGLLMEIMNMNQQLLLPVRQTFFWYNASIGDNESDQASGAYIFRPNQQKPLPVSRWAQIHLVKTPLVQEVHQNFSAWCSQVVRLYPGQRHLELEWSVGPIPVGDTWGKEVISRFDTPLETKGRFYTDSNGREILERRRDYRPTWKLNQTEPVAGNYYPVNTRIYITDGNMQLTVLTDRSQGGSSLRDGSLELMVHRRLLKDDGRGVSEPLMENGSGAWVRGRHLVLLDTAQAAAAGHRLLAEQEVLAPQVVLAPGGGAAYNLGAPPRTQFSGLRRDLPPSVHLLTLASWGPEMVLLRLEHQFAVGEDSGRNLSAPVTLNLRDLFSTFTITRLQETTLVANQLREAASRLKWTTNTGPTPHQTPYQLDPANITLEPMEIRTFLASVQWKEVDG
Source text: To determine the enzymatic activity of the recombinant enzymes, lyophilized enzymes were reconstituted in the NaPi buffer described above. The lyophilized samples of wild-type GC (Cerezyme®) and the custom-made recombinant N307S mutant enzyme contain 0.01% polysorbate 80 (Tween 80) (see prescription information for Cerezyme® at the website for Cerezyme®). As indicated in our experiments, the concentration of the detergent is sufficient to support active GC enzyme and to perform the in vitro GC activity assays without adding further detergents to the reaction mix. For enzyme activity assays of recombinant proteins, 0.1-0.2 nmol of GC (Cerezyme®; N370S) and LAMAN were used in the absence or presence of 10× the molar amount of LIMP-2-derived peptides (Table 1) or LIMP-2 ectodomain (1-2 nmol) (Table 3).
All activity assays were performed at acid pH.

Substance: Biotin-Ttds-KFERQLREIIEAMLKAYQQKLFVTHTVDEYGRKKRRQRRR [helix 5 TAT-peptide]
- elevation of GC activity within lysosomes of living cells [1]: 18%

Substance: Biotin-Ttds-LREIIEAMLKAYQQKLFVTHTVDE [helix 5 peptide]
- effect on enzymatic activity of recombinant LAMAN [2]: No effect
